# Results reported in the supplement of paper PMC11451515.
# System: NOMO1
# Experiment: cell viability relative to DMSO control; higher = less cytotoxic
# Settings: 48 h
# How it was run: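 NOMO1 or SEM (500 cells/well) or P12-Ichikawa (1000 cells/well) leukemia cells were adapted for at least four passages in each medium. They were seeded in 1536-well plates (5 μl) and pin-dosed with library compounds in DMSO over an 11-point threefold series, 47 μM to 0.79 nM. CellTiter-Glo One luminescence was read after 48 h at 37°C. Viability is the per-plate percentage relative to DMSO wells, with cell-free wells as background.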
# [1] = HPLM + 10% dialyzed FBS, 0.000781 µM
# [2] = HPLM + 10% dialyzed FBS, 0.00234 µM
# [3] = HPLM + 10% dialyzed FBS, 0.00702 µM
# [4] = HPLM + 10% dialyzed FBS, 0.0211 µM
# [5] = HPLM + 10% dialyzed FBS, 0.0632 µM
# [6] = HPLM + 10% dialyzed FBS, 0.19 µM
# [7] = HPLM + 10% dialyzed FBS, 0.569 µM
# [8] = HPLM + 10% dialyzed FBS, 1.71 µM
# [9] = HPLM + 10% dialyzed FBS, 5.12 µM
# [10] = HPLM + 10% dialyzed FBS, 15.4 µM
# [11] = HPLM + 10% dialyzed FBS, 46.1 µM
# [12] = RPMI 5 mM glucose + 10% FBS, 0.000781 µM
# [13] = RPMI 5 mM glucose + 10% FBS, 0.00234 µM
# [14] = RPMI 5 mM glucose + 10% FBS, 0.00702 µM
# [15] = RPMI 5 mM glucose + 10% FBS, 0.0211 µM
# [16] = RPMI 5 mM glucose + 10% FBS, 0.0632 µM
# [17] = RPMI 5 mM glucose + 10% FBS, 0.19 µM
# [18] = RPMI 5 mM glucose + 10% FBS, 0.569 µM
# [19] = RPMI 5 mM glucose + 10% FBS, 1.71 µM
# [20] = RPMI 5 mM glucose + 10% FBS, 5.12 µM
# [21] = RPMI 5 mM glucose + 10% FBS, 15.4 µM
# [22] = RPMI 5 mM glucose + 10% FBS, 46.1 µM
# [23] = RPMI 5 mM glucose + 10% dialyzed FBS, 0.000781 µM
# [24] = RPMI 5 mM glucose + 10% dialyzed FBS, 0.00234 µM
# [25] = RPMI 5 mM glucose + 10% dialyzed FBS, 0.00702 µM
# [26] = RPMI 5 mM glucose + 10% dialyzed FBS, 0.0211 µM
# [27] = RPMI 5 mM glucose + 10% dialyzed FBS, 0.0632 µM
# [28] = RPMI 5 mM glucose + 10% dialyzed FBS, 0.19 µM
# [29] = RPMI 5 mM glucose + 10% dialyzed FBS, 0.569 µM
# [30] = RPMI 5 mM glucose + 10% dialyzed FBS, 1.71 µM
# [31] = RPMI 5 mM glucose + 10% dialyzed FBS, 5.12 µM
# [32] = RPMI 5 mM glucose + 10% dialyzed FBS, 15.4 µM
# [33] = RPMI 5 mM glucose + 10% dialyzed FBS, 46.1 µM
SMILES,cell viability [1] [%],cell viability [2] [%],cell viability [3] [%],cell viability [4] [%],cell viability [5] [%],cell viability [6] [%],cell viability [7] [%],cell viability [8] [%],cell viability [9] [%],cell viability [10] [%],cell viability [11] [%],cell viability [12] [%],cell viability [13] [%],cell viability [14] [%],cell viability [15] [%],cell viability [16] [%],cell viability [17] [%],cell viability [18] [%],cell viability [19] [%],cell viability [20] [%],cell viability [21] [%],cell viability [22] [%],cell viability [23] [%],cell viability [24] [%],cell viability [25] [%],cell viability [26] [%],cell viability [27] [%],cell viability [28] [%],cell viability [29] [%],cell viability [30] [%],cell viability [31] [%],cell viability [32] [%],cell viability [33] [%]
COc1ccc(C(=O)CC(=O)c2ccc(C(C)(C)C)cc2)cc1,78.3,107,92.8,101,108,112,131,130,121,98.3,105,101,108,107,110,121,113,122,104,117,122,121,73,102,99.9,106,108,111,110,106,115,95.7,111
CO[C@H]1/C=C/O[C@@]2(C)Oc3c(C)c(O)c4c(O)c(c(/C=N\N5CCN(C6CCCC6)CC5)c(O)c4c3C2=O)NC(=O)/C(C)=C\C=C\[C@H](C)[C@H](O)[C@@H](C)[C@@H](O)[C@@H](C)[C@H](OC(C)=O)[C@@H]1C,119,123,104,116,90.5,93.4,79.3,52.3,28.9,6.78,0.815,123,110,111,107,109,76.5,75.1,51.8,17.9,3.98,0.906,100,98.4,95.2,80.2,83.4,79.3,64.7,52.9,24.1,3.08,0.433
CNC(=O)c1ccc(N2C(=S)N(c3ccc(C#N)c(C(F)(F)F)c3)C(=O)C2(C)C)cc1F,87.7,114,105,125,117,127,120,115,143,127,111,93,124,121,118,125,111,111,121,123,121,115,102,112,103,113,121,116,124,126,115,121,114
CCCOc1ccc2[nH]c(NC(=O)OC)nc2c1,116,116,104,102,76.5,36.9,31.7,32,50.3,36.6,36.6,122,116,120,121,98.3,28.6,21.1,19.4,26.7,22.6,25.2,–,–,–,–,–,–,–,–,–,–,–
CO[C@@H]1[C@@H](OC(N)=O)[C@@H](O)[C@H](OC2=CC=C3\C(=C(NC(=O)C4=CC=C([O-])C(=C4)CC=C(C)C)/C(=O)OC3=C2C)O)OC1(C)C,110,111,122,114,109,120,101,91.9,93.2,87,31.8,91.4,101,96.6,98.1,111,102,116,110,101,86.6,26.2,114,118,116,118,113,97.5,117,120,88.5,83.9,35.9
CCOC(CN1C(=O)[C@](CC(=O)Nc2ccc(C)cc2)(NC(=O)Nc2ccc(C)cc2)c2ccccc21)OCC,109,112,125,113,123,122,126,124,106,83.8,70.7,110,107,106,107,113,104,123,125,113,103,49.8,99.2,101,105,99.8,114,115,109,115,99.3,93,60.3
O=C(O)CSCC(=O)NC1CCSC1=O (centres undefined),122,112,105,95.1,118,119,107,117,106,112,122,105,105,111,99.8,110,116,114,102,108,105,104,104,95.7,114,104,109,113,108,118,105,100,102
O=C(c1ccc(/C=C/c2n[nH]c3ccccc23)cc1)N1CCNCC1,108,96.5,88.4,87.1,97.9,120,115,69.4,70.9,88.7,73.1,97,100,94,85.8,90.7,86.2,87.1,56.2,63.8,58.4,69,86.5,85.6,88.6,97.2,87.8,97.4,93.9,54.9,49.5,65.5,71.2
Nc1nc(Nc2ccc([S+](N)(=O)[O-])cc2)nn1C(=O)c1c(F)cccc1F,94.7,97.4,90.6,113,105,109,102,107,120,66.1,7.01,94.7,87.8,107,94,94.7,99.3,93.8,87.2,93.2,50.4,8.21,98.7,86.1,100,91.5,86.9,92.7,93.1,104,84.4,49.5,5.65
C[C@]12CC[C@@H]3c4ccc(O)cc4CC[C@H]3[C@@H]1CC[C@@H]2O,124,124,124,112,117,115,117,116,112,56.3,46.9,–,–,–,–,–,–,–,–,–,–,–,107,116,105,133,128,116,104,103,104,91.8,35.6
CN1CC/C(CC1)=C3\c4ccccc4CC(=O)c2sccc23,120,125,114,121,130,128,153,135,110,112,105,120,123,136,135,136,134,156,131,142,151,128,–,–,–,–,–,–,–,–,–,–,–
CCc1ccc(C(=O)Nc2cc(CN3CCN(C)CC3)cc(C(F)(F)F)c2)cc1C#Cc1cnc2ccnn2c1,117,113,123,118,109,129,134,142,104,103,101,99.5,112,113,114,120,110,119,116,119,128,102,115,119,107,112,120,114,125,119,120,107,113
C[N]1N=CC2=C1C=C(C(=C2)OC3=CC=C(NC(=O)\C4=C\C=C(\C)N(C4=O)C5=CC=C(F)C=C5)C=C3F)C6=C[NH]N=C6,107,131,117,126,133,141,132,125,86.1,25.3,15.6,113,112,111,121,127,107,116,118,104,16.4,11.9,121,117,118,108,122,125,124,115,100,30,16.2
COCCCOc1ccnc(C[S+]([O-])c2nc3ccccc3[nH]2)c1C (centres undefined),92.5,116,113,123,123,122,116,127,130,119,117,126,118,110,109,131,124,105,126,115,118,124,108,114,119,120,133,119,119,121,120,115,129
